The values below come from patent US8048683B2, “Insect repellent and process for identifying other insect repellent molecules” (Centre National de la Recherche Scientifique, priority 2006, dated 2011).

The subject of experiment [1] is drosophilas. The experiment in a line: Gustatory choice (feeding preference) behavioral test with two dyes. Type of experiment: in vivo, Drosophila melanogaster. As to the method:
The test used measures the feeding preference in a choice with 2 possibilities materialized by two dyes, on the one hand erioglaucine (blue) and, on the other hand, sulforhodamine (red).
The erioglaucine is used at a final concentration of 5 mg/ml, dissolved in double-distilled water, pH 7.5. The sulforhodamine is used at a final concentration of 20 mg/ml, dissolved in double-distilled water, pH 7.5. The 2 dye solutions also contain sucrose fat a final concentration of 5 mM). The agonists (pH=7.5) used are added, an the final concentrations indicated on the figures, to the solution containing the erioglaucine.
To prepare a solid medium, these various compounds are added to a molten solution of agarose (0.3% final concentration, 45° C.) and deposited in a 96-well cell culture plate (Corning Incorporated, ref 3599) such that the wells alternately contain 200 μl of blue dye then 200 μl of red dye (see FIG. 4). The plates are left at ambient temperature for 2 hours in order for the agarose to solidify, and are then used for a feeding preference test.
For each behavioral test, 60 2- to 5-day-old drosophilas are deprived of food for 24 hours on cotton wool soaked with distilled water before the test and are then placed in a box containing a 96-well plate prepared as indicated above. The drosophilas are left in the dark for 2 hours, at 25° C., at a humidity of 30 to 50%. The drosophilas are then rapidly collected by anesthesia with CO2 and then frozen at −20° C. for 20 minutes. In order to determine the food intake, the flies are counted according to the color of the content of their digestive tube. The results are expressed as % of flies which have eaten a given medium relative to the total number of flies which have eaten, according to the formula: % blue=number of flies with a blue digestive tube, divided by the number of flies which have eaten (sum of the flies with a blue, violet or red digestive tube), multiplied by 100.
At least 3 independent tests were carried out for each point indicated on the figures, and the results of the tests were counted blind for the majority of the points. Only the tests in which more than […] of the flies had eaten were included in the results and in the statistical tests (T test and ANOVA). […]
The flies are counted according to the color of the content of their digestive tube.
The results are expressed as percentage of flies which have eaten a given medium, relative to the total number of flies which have eaten. % blue=N blue/(N blue+N violet+N red)×100 […]

Experiment [2] deals with T1, DmX receptor (DmXR) (Drosophila melanogaster, UniProt Q70GQ8).
T1 sequence (Q70GQ8 1-1073): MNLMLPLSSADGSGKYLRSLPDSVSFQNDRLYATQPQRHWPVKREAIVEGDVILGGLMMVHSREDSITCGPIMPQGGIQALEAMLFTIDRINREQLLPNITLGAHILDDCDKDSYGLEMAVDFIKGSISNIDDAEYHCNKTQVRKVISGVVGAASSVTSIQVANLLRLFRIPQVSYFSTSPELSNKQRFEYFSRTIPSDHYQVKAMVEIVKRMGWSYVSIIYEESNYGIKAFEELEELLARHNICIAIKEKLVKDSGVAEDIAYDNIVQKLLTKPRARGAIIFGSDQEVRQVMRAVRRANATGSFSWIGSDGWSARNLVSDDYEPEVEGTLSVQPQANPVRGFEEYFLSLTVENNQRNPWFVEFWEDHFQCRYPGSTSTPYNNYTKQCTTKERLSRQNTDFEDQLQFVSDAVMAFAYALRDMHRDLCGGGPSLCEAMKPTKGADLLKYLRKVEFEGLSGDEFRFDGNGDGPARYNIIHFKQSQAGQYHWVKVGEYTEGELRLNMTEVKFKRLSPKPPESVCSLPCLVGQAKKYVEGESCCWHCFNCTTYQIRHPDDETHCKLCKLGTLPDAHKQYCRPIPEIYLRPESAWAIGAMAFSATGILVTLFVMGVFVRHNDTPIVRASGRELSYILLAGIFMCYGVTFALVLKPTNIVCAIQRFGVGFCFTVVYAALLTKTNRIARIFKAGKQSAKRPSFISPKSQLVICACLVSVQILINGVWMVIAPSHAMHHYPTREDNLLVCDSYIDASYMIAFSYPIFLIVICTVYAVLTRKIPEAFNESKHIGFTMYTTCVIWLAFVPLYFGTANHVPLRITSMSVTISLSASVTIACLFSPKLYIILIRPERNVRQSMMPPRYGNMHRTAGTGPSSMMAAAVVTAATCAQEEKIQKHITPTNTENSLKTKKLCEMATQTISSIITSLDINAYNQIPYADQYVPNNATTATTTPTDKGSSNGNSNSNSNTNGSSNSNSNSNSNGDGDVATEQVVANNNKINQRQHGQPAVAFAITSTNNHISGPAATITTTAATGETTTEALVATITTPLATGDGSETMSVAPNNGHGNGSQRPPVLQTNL
The experiment in a line: Pharmacological test: DmXR activation in transfected HEK cells, measured by accumulation of inositol triphosphate. The following applies: FIG. 1.

Molecules are shown by their SMILES.

With `N=C(N)NOCC[C@H](N)C(=O)O` [L-canavanine, L-2-amino-4-(guanidinooxy)butyric acid], the “effect on sugary solution in behavioral test” value in experiment [1] (40 mM, 5 mM sucrose) is “very highly repellent”. For the same molecule, in experiment [1] (additional experiments), the “concentration at which a plateau of repellent effect is reached” value is given as “around 30 mM”. For the same molecule, the “repulsion in DmX receptor function loss mutants” value in experiment [1] (mutant drosophilas m1 and m2 (DmXR-)) was “no longer have any repulsion”. Also, the “repellent effect in chemosensory behavioral test” value in experiment [1] (wild-type drosophila, sugary solution (5 mM sucrose)) was “highly repellent”. Besides, the “in vitro activation of the DmX receptor” value in experiment [2] is listed as “activated”.
